Data reported in the NIST ThermoML archive (doi:10.1021/acs.jced.8b00854).
± gives the expanded uncertainty stated by the source.

Assays:
[1] = xn = mol fraction of the nth substance listed; conditions: 100 kPa, Liquid, Vibrating tube method
[2] = refractive index (Na D-line) (dimensionless); xn = mol fraction of the nth substance listed; conditions: 100 kPa, Liquid, Standard Abbe refractometry

Compound: CCn1cc[n+](C)c1.O=S(=O)([O-])C(F)(F)F [1-ethyl-3-methylimidazolium trifluoromethanesulfonate] + O
- mass density ([1]; 293.15 K, x1 = 0.1001): 1209.27 ± 2.1 kg/m3
- mass density ([1]; 293.15 K, x1 = 0.2002): 1281.52 ± 2 kg/m3
- mass density ([1]; 293.15 K, x1 = 0.3005): 1315.51 ± 2 kg/m3
- mass density ([1]; 293.15 K, x1 = 0.4002): 1336.6 ± 2 kg/m3
- mass density ([1]; 293.15 K, x1 = 0.5003): 1352.45 ± 2 kg/m3
- mass density ([1]; 293.15 K, x1 = 0.5997): 1364.43 ± 2 kg/m3
- mass density ([1]; 293.15 K, x1 = 0.6996): 1372.69 ± 2 kg/m3
- mass density ([1]; 293.15 K, x1 = 0.8011): 1379.1 ± 2 kg/m3
- mass density ([1]; 293.15 K, x1 = 0.8992): 1384.17 ± 2 kg/m3
- mass density ([1]; 303.15 K, x1 = 0.1001): 1201.8 ± 2.1 kg/m3
- mass density ([1]; 303.15 K, x1 = 0.2002): 1272.85 ± 2 kg/m3
- mass density ([1]; 303.15 K, x1 = 0.3005): 1307.15 ± 2 kg/m3
- mass density ([1]; 303.15 K, x1 = 0.4002): 1328.01 ± 2 kg/m3
- mass density ([1]; 303.15 K, x1 = 0.5003): 1343.96 ± 2 kg/m3
- mass density ([1]; 303.15 K, x1 = 0.5997): 1356.16 ± 2 kg/m3
- mass density ([1]; 303.15 K, x1 = 0.6996): 1364.59 ± 2 kg/m3
- mass density ([1]; 303.15 K, x1 = 0.8011): 1370.87 ± 2 kg/m3
- mass density ([1]; 303.15 K, x1 = 0.8992): 1375.74 ± 2 kg/m3
- mass density ([1]; 313.15 K, x1 = 0.1001): 1193.23 ± 2.1 kg/m3
- mass density ([1]; 313.15 K, x1 = 0.2002): 1263.86 ± 2 kg/m3
- mass density ([1]; 313.15 K, x1 = 0.3005): 1298.67 ± 2 kg/m3
- mass density ([1]; 313.15 K, x1 = 0.4002): 1319.89 ± 2 kg/m3
- mass density ([1]; 313.15 K, x1 = 0.5003): 1335.41 ± 2 kg/m3
- mass density ([1]; 313.15 K, x1 = 0.5997): 1347.44 ± 2 kg/m3
- mass density ([1]; 313.15 K, x1 = 0.6996): 1355.79 ± 2 kg/m3
- mass density ([1]; 313.15 K, x1 = 0.8011): 1362.45 ± 2 kg/m3
- mass density ([1]; 313.15 K, x1 = 0.8992): 1367.34 ± 2 kg/m3
- mass density ([1]; 323.15 K, x1 = 0.1001): 1184.96 ± 2.1 kg/m3
- mass density ([1]; 323.15 K, x1 = 0.2002): 1254.13 ± 2 kg/m3
- mass density ([1]; 323.15 K, x1 = 0.3005): 1289.63 ± 2 kg/m3
- mass density ([1]; 323.15 K, x1 = 0.4002): 1311.02 ± 2 kg/m3
- mass density ([1]; 323.15 K, x1 = 0.5003): 1326.85 ± 2 kg/m3
- mass density ([1]; 323.15 K, x1 = 0.5997): 1338.82 ± 2 kg/m3
- mass density ([1]; 323.15 K, x1 = 0.6996): 1347.42 ± 2 kg/m3
- mass density ([1]; 323.15 K, x1 = 0.8011): 1353.98 ± 2 kg/m3
- mass density ([1]; 323.15 K, x1 = 0.8992): 1359.01 ± 2 kg/m3
- mass density ([1]; 333.15 K, x1 = 0.1001): 1175.32 ± 2.1 kg/m3
- mass density ([1]; 333.15 K, x1 = 0.2002): 1243.01 ± 2 kg/m3
- mass density ([1]; 333.15 K, x1 = 0.3005): 1279.6 ± 2 kg/m3
- mass density ([1]; 333.15 K, x1 = 0.4002): 1301.89 ± 2 kg/m3
- mass density ([1]; 333.15 K, x1 = 0.5003): 1318.27 ± 2 kg/m3
- mass density ([1]; 333.15 K, x1 = 0.5997): 1329.91 ± 2 kg/m3
- mass density ([1]; 333.15 K, x1 = 0.6996): 1338.78 ± 2 kg/m3
- mass density ([1]; 333.15 K, x1 = 0.8011): 1345.55 ± 2 kg/m3
- mass density ([1]; 333.15 K, x1 = 0.8992): 1350.72 ± 2 kg/m3
- mass density ([1]; 343.15 K, x1 = 0.1001): 1162.52 ± 2.1 kg/m3
- mass density ([1]; 343.15 K, x1 = 0.2002): 1232.07 ± 2 kg/m3
- mass density ([1]; 343.15 K, x1 = 0.3005): 1269.41 ± 2 kg/m3
- mass density ([1]; 343.15 K, x1 = 0.4002): 1292.35 ± 2 kg/m3
- mass density ([1]; 343.15 K, x1 = 0.5003): 1309.53 ± 2 kg/m3
- mass density ([1]; 343.15 K, x1 = 0.5997): 1321.23 ± 2 kg/m3
- mass density ([1]; 343.15 K, x1 = 0.6996): 1330.17 ± 2 kg/m3
- mass density ([1]; 343.15 K, x1 = 0.8011): 1336.93 ± 2 kg/m3
- mass density ([1]; 343.15 K, x1 = 0.8992): 1342.48 ± 2 kg/m3
- refractive index ([2]; 293.15 K, x1 = 0.1001): 1.3885 ± 0.0019
- refractive index ([2]; 293.15 K, x1 = 0.2002): 1.406 ± 0.0016
- refractive index ([2]; 293.15 K, x1 = 0.3005): 1.4155 ± 0.0016
- refractive index ([2]; 293.15 K, x1 = 0.4002): 1.421 ± 0.0017
- refractive index ([2]; 293.15 K, x1 = 0.5003): 1.425 ± 0.0016
- refractive index ([2]; 293.15 K, x1 = 0.5997): 1.4275 ± 0.0016
- refractive index ([2]; 293.15 K, x1 = 0.6996): 1.43 ± 0.0016
- refractive index ([2]; 293.15 K, x1 = 0.8011): 1.4315 ± 0.0016
- refractive index ([2]; 293.15 K, x1 = 0.8992): 1.4325 ± 0.0017
- refractive index ([2]; 303.15 K, x1 = 0.1001): 1.3865 ± 0.0016
- refractive index ([2]; 303.15 K, x1 = 0.2002): 1.4055 ± 0.0016
- refractive index ([2]; 303.15 K, x1 = 0.3005): 1.414 ± 0.0016
- refractive index ([2]; 303.15 K, x1 = 0.4002): 1.4175 ± 0.0017
- refractive index ([2]; 303.15 K, x1 = 0.5003): 1.423 ± 0.0016
- refractive index ([2]; 303.15 K, x1 = 0.5997): 1.4255 ± 0.0016
- refractive index ([2]; 303.15 K, x1 = 0.6996): 1.4275 ± 0.0016
- refractive index ([2]; 303.15 K, x1 = 0.8011): 1.4295 ± 0.0016
- refractive index ([2]; 303.15 K, x1 = 0.8992): 1.43 ± 0.0016
- refractive index ([2]; 313.15 K, x1 = 0.1001): 1.386 ± 0.0016
- refractive index ([2]; 313.15 K, x1 = 0.2002): 1.403 ± 0.0016
- refractive index ([2]; 313.15 K, x1 = 0.3005): 1.412 ± 0.0016
- refractive index ([2]; 313.15 K, x1 = 0.4002): 1.415 ± 0.0016
- refractive index ([2]; 313.15 K, x1 = 0.5003): 1.421 ± 0.0016
- refractive index ([2]; 313.15 K, x1 = 0.5997): 1.4235 ± 0.0016
- refractive index ([2]; 313.15 K, x1 = 0.6996): 1.4255 ± 0.0016
- refractive index ([2]; 313.15 K, x1 = 0.8011): 1.427 ± 0.0016
- refractive index ([2]; 313.15 K, x1 = 0.8992): 1.4285 ± 0.0016
- refractive index ([2]; 323.15 K, x1 = 0.1001): 1.3855 ± 0.0016
- refractive index ([2]; 323.15 K, x1 = 0.2002): 1.4025 ± 0.0016
- refractive index ([2]; 323.15 K, x1 = 0.3005): 1.411 ± 0.0016
- refractive index ([2]; 323.15 K, x1 = 0.4002): 1.414 ± 0.0016
- refractive index ([2]; 323.15 K, x1 = 0.5003): 1.42 ± 0.0016
- refractive index ([2]; 323.15 K, x1 = 0.5997): 1.422 ± 0.0017
- refractive index ([2]; 323.15 K, x1 = 0.6996): 1.4235 ± 0.0016
- refractive index ([2]; 323.15 K, x1 = 0.8011): 1.4255 ± 0.0016
- refractive index ([2]; 323.15 K, x1 = 0.8992): 1.426 ± 0.0017
- refractive index ([2]; 333.15 K, x1 = 0.1001): 1.385 ± 0.0016
- refractive index ([2]; 333.15 K, x1 = 0.2002): 1.4005 ± 0.0016
- refractive index ([2]; 333.15 K, x1 = 0.3005): 1.4095 ± 0.0016
- refractive index ([2]; 333.15 K, x1 = 0.4002): 1.413 ± 0.0016
- refractive index ([2]; 333.15 K, x1 = 0.5003): 1.418 ± 0.0016
- refractive index ([2]; 333.15 K, x1 = 0.5997): 1.418 ± 0.0016
- refractive index ([2]; 333.15 K, x1 = 0.6996): 1.421 ± 0.0016
- refractive index ([2]; 333.15 K, x1 = 0.8011): 1.423 ± 0.0016
- refractive index ([2]; 333.15 K, x1 = 0.8992): 1.4237 ± 0.0017
- refractive index ([2]; 343.15 K, x1 = 0.1001): 1.385 ± 0.0022
- refractive index ([2]; 343.15 K, x1 = 0.2002): 1.3995 ± 0.0016
- refractive index ([2]; 343.15 K, x1 = 0.3005): 1.409 ± 0.0016
- refractive index ([2]; 343.15 K, x1 = 0.4002): 1.413 ± 0.0016
- refractive index ([2]; 343.15 K, x1 = 0.5003): 1.417 ± 0.0016
- refractive index ([2]; 343.15 K, x1 = 0.5997): 1.4175 ± 0.0016
- refractive index ([2]; 343.15 K, x1 = 0.6996): 1.419 ± 0.0016
- refractive index ([2]; 343.15 K, x1 = 0.8011): 1.421 ± 0.0017
- refractive index ([2]; 343.15 K, x1 = 0.8992): 1.4215 ± 0.0017
